Reference: US6441162B2, “Crystalline substance of cefditoren pivoxyl and the production of the same” (Meiji Seika Kaisha, Ltd., priority 1996, dated 2002)

Test: Thermal stability on storage in sealed dry containers, residual Cefditoren pivoxyl by liquid chromatography
Type: physicochemical
Settings: sealed dry container; for Residual quantity (%) of Cefditoren pivoxyl upon storage at 60° C., Initial content (at 0 day): initial content assumed to be 100%
Description: In order to test the thermal stability on storage of the new crystalline substance of Cefditoren pivoxyl according to this invention, in comparison with the known, amorphous form of Cefditoren pivoxyl, there were employed a sample of the crystalline Cefditoren pivoxyl which was produced in Example 1 given hereinafter, as well as a sample of the amorphous Cefditoren pivoxyl which was produced by admixing a solution of amorphous Cefditoren pivoxyl in methanol with an aqueous iso-propanol to precipitate an amorphous powder of this compound and separating and drying this powder under a reduced pressure. These samples were separately placed in sealed dry containers and were stored for 1 month, for 2 months and for 4 months at 60° C. and at 40° C., respectively. After these storages, the samples were analysed by a liquid chromatographic method and percentages of the residual quantity of Cefditoren pivoxyl remaining in the stored samples were evaluated from the area under the absorption peak which was shown in the chromatogramms obtained. It is assumed that the initial content of Cefditoren pivoxyl in the test samples was 100% at the starting of the storages.

Residual quantity (%) of Cefditoren pivoxyl upon storage at 60° C., After 1 month [%]	Residual quantity (%) of Cefditoren pivoxyl upon storage at 60° C., After 2 months [%]	Residual quantity (%) of Cefditoren pivoxyl upon storage at 60° C., Initial content (at 0 day) [%]	Residual quantity of Cefditoren pivoxyl after the 4-month storage at 40° C. (40° C., 4 months) [%]	Residual quantity (%) of Cefditoren pivoxyl upon storage at 60° C., After 2 months (listed as crystalline substance of Cefditoren pivoxyl) [%]	SMILES
93	88	100			CO/N=C(\C(=O)NC1C(=O)N2C(C(=O)OCOC(=O)C(C)(C)C)=C(/C=C\c3scnc3C)CS[C@H]12)c1csc(N)n1 (some centres unmarked) [Amorphous substance, 7-[(Z)-2-(2-aminothiazol-4-yl)-2-methoxyiminoacetamido]-3-[(Z)-2-(4-methylthiazol-5-yl)ethenyl]-3-cephem-4-carboxylic acid pivaloyloxymethyl ester, reference compound]
99	99	100	99	99	CO/N=C(\C(=O)NC1C(=O)N2C(C(=O)OCOC(=O)C(C)(C)C)=C(/C=C\c3scnc3C)CS[C@H]12)c1csc(N)n1 (some centres unmarked) [Crystalline substance, 7-[(Z)-2-(2-aminothiazol-4-yl)-2-methoxyiminoacetamido]-3-[(Z)-2-(4-methylthiazol-5-yl)ethenyl]-3-cephem-4-carboxylic acid pivaloyloxymethyl ester]
